Assays:
Female BALB/c mice = assay: Performance evaluation of in vivo delivery of Fluc mRNA lipid nanoparticle (IVIS, body and organs); conditions: Fluc mRNA LNP; for Liver (fluorescence expression intensity) / Spleen (fluorescence expression intensity): 75 μL IV; for Liver (fluorescence expression intensity) / Spleen (fluorescence expression intensity) / Total flux (fluorescence expression intensity) / (Spleen/Total Flux) * 100%: 6 hours after injection; for Liver (fluorescence expression intensity) / Spleen (fluorescence expression intensity) / Total flux (fluorescence expression intensity): IVIS; for Total flux (fluorescence expression intensity): 75 μL tail vein injection (IV); for (Spleen/Total Flux) * 100% / Multiple of spleen delivery/total delivery to amino lipid compound 118: IV; for Multiple of spleen delivery/total delivery to amino lipid compound 118: relative to amino lipid compound 118
Procedure: Animal preparation: Female BALB/c mice of 6-8 weeks old were selected and raised in an SPF grade breeding room. Animal testing was conducted in strict accordance with the guidelines of national health institutions and animal ethics requirements.
In vivo Delivery: prior to injection of the test LNP formulations, the LNP formulations were gently and repeatedly inverted to thoroughly mix the formulation samples. A corresponding amount of the formulation samples were aspirated with a 1 ml insulin syringe, and the LNP formulations were injected by tail vein injection (IV), with 3 mice in duplicate per formulation. Each mouse was injected with 75 μL of the luciferase mRNA (Fluc mRNA)-encapsulating lipid nanoparticle formulation prepared in Experimental Example 1.
6 hours after injection of LNP formulations, mice were injected with 200 μL D-Luciferin luciferase developing substrate (Catalog No. 122799; Manufacturer: Perkin Elmer). After the substrate was injected, the mice were anesthetized with isoflurane inhalation, and the injection time of luciferase developing substrate was recorded.
The encapsulation efficiency of the lipid nanoparticle encapsulating luciferase mRNA (Fluc mRNA) with a representative amino lipid compound and the fluorescence expression intensity induced by the same are shown in Table 4, with the amino lipid compound 118 as a control.
The multiple of spleen delivery/total delivery of fluorescence expression intensity induced by lipid nanoparticle encapsulating luciferase mRNA (Fluc mRNA) with a representative amino lipid compound to amino lipid compound 118 is shown in Table 5.

[1] = Preparation and characterisation of mRNA-encapsulating lipid nanoparticle (encapsulation efficiency, particle size); assay type: physicochemical; conditions: LNP encapsulating Fluc mRNA; Lipid:DSPC:CHO-HP:M-DMG-2000 48:10:40.5:1.5
Procedure: A specified amount of Fluc mRNA stock solution, 0.2 M sodium acetate buffer, and DEPC water were added to a container, and mixed well to obtain a water phase;
The amino lipid compound of the present disclosure, a helper lipid, a structural lipid, and a PEG-lipid were separately dissolved in absolute ethanol to prepare respective solutions at concentrations of 20 mg/mL, 10 mg/mL, 20 mg/mL, and 25 mg/mL, respectively. The above four solutions were pipetted at a molar ratio of Lipid:DSPC:CHO—HP:M-DMG-2000 of 48:10:40.5:1.5, and mixed well to prepare an alcohol phase. • (2) Encapsulation: The water phase and the alcohol phase were injected into a microfluidic chip at a flow rate of water phase: alcohol phase=12 mL/min: 4 mL/min by using a microfluidic preparation instrument (MPE-L2), and encapsulation was carried out at a flow rate of water phase: alcohol phase=9 mL/min: 3 mL/min to obtain mRNA-encapsulating lipid nanoparticle (mRNA-LNP). • (3) Dialysis: The product of step (2) was loaded in a dialysis bag and placed in a Tris Buffer-8% sucrose solution for replacement to remove ingredients such as residual ethanol, unassembled lipids. Dialysis was conducted for 2 h with magnetic stirring at room temperature and under protection from light (dialysate was replaced every 1 hour). • (4) The product of step (3) was sterilized by passing through a […] microporous membrane, and then packaged.
Lipid nanoparticle formulations encapsulating Fluc mRNA were prepared, with a concentration of Fluc mRNA of 0.2 g/L, a mass ratio of Fluc mRNA to Lipid of 1:10, a particle size of 80-130 nm, and a encapsulation efficiency of 85% or higher.
The encapsulation efficiency of the lipid nanoparticle encapsulating luciferase mRNA (Fluc mRNA) with a representative amino lipid compound and the fluorescence expression intensity induced by the same are shown in Table 4, with the amino lipid compound 118 as a control. […]

SMILES	Liver (fluorescence expression intensity) (Female BALB/c mice)	Spleen (fluorescence expression intensity) (Female BALB/c mice)	Total flux (fluorescence expression intensity) (Female BALB/c mice)	(Spleen/Total Flux) * 100% (Female BALB/c mice)	Multiple of spleen delivery/total delivery to amino lipid compound 118 (Female BALB/c mice)	Encapsulation efficiency [1]
CCCCCCC(CCCCCC)OC(=O)CCCCCCCCC(CCCCCCCCC(=O)OC(CCCCCC)CCCCCC)OC(=O)N(CCCCC)CCCN(C)C [Compound 108]	6.84E+07	1.02E+06	3.40E+08	0.30%	0.88	91.78%
CCCCCCC(CCCCCC)OC(=O)CCCCCCCCC(CCCCCCCCC(=O)OC(CCCCCC)CCCCCC)OC(=O)N(CCCCCC)CCCN(C)C [Compound 109]	5.22E+07	8.53E+05	2.80E+08	0.30%	0.90	92.87%
CCCCCCCN(CCCN(C)C)C(=O)OC(CCCCCCCCC(=O)OC(CCCCCC)CCCCCC)CCCCCCCCC(=O)OC(CCCCCC)CCCCCC [Compound 110]	5.83E+07	8.71E+05	2.44E+08	0.36%	1.05	90.82%
CCCCCCCC(=O)N(CCCN(C)C)C(CCCCCCCCC(=O)OC(CCCCCC)CCCCCC)CCCCCCCCC(=O)OC(CCCCCC)CCCCCC [Compound 118, reference compound]	1.88E+08	2.19E+06	6.46E+08	0.34%	1.00	90.53%
CC/C=C\COC(=O)CCCN(CCCN(C)C)C(=O)OC(CCCCCCCCC(=O)OC(CCCCCC)CCCCCC)CCCCCCCCC(=O)OC(CCCCCC)CCCCCC [Compound 275]	1.23E+08	8.84E+06	8.16E+08	1.08%	3.19	90.61%
CCC/C=C\COC(=O)CCCN(CCCN(C)C)C(=O)OC(CCCCCCCCC(=O)OC(CCCCCC)CCCCCC)CCCCCCCCC(=O)OC(CCCCCC)CCCCCC [Compound 276]	1.43E+08	4.67E+06	7.70E+08	0.61%	1.78	88.92%
CC/C=C\CCOC(=O)CCCN(CCCN(C)C)C(=O)OC(CCCCCCCCC(=O)OC(CCCCCC)CCCCCC)CCCCCCCCC(=O)OC(CCCCCC)CCCCCC [Compound 277]	7.98E+07	8.42E+06	3.14E+08	2.68%	7.89	91.00%
CCCC/C=C\CCOC(=O)CCCN(CCCN(C)C)C(=O)OC(CCCCCCCCC(=O)OC(CCCCCC)CCCCCC)CCCCCCCCC(=O)OC(CCCCCC)CCCCCC [Compound 279]	9.55E+07	4.57E+06	6.29E+08	0.73%	2.14	92.43%
CC/C=C\COC(=O)CCCCCN(CCCN(C)C)C(=O)OC(CCCCCCCCC(=O)OC(CCCCCC)CCCCCC)CCCCCCCCC(=O)OC(CCCCCC)CCCCCC [Compound 284]	3.29E+07	5.20E+06	3.42E+08	1.52%	4.47	91.63%
CCCCCCC(CCCCCC)OC(=O)CCCCCCCCC(CCCCCCCCC(=O)OC(CCCCCC)CCCCCC)OC(=O)N(CCCCCC(=O)OC(C)CC)CCCN(C)C (stereo not drawn) [Compound 298]	3.32E+07	2.13E+06	2.61E+08	0.82%	2.40	92.85%
CCCCCCC(CCCCCC)OC(=O)CCCCCCCCC(CCCCCCCCC(=O)OC(CCCCCC)CCCCCC)OC(=O)N(CCCCC(=O)OC(C)CCC)CCCN(C)C (stereo not drawn) [Compound 303]	8.58E+07	5.56E+06	6.41E+08	0.87%	2.55	93.23%
CCCCCCC(CCCCCC)OC(=O)CCCCCCCCC(CCCCCCCCC(=O)OC(CCCCCC)CCCCCC)OC(=O)N(CCCCC(=O)OC(CC)CC)CCCN(C)C [Compound 304]	1.06E+08	1.48E+07	5.18E+08	2.86%	8.40	92.03%
CCCCCCC(CCCCCC)OC(=O)CCCCCCCCC(CCCCCCCCC(=O)OC(CCCCCC)CCCCCC)OC(=O)N(CCCCC(=O)OC(C)CCCC)CCCN(C)C (stereo not drawn) [Compound 305]	9.19E+07	7.03E+06	6.71E+08	1.05%	3.08	90.70%
CCCCCCC(CCCCCC)OC(=O)CCCCCCCCC(CCCCCCCCC(=O)OC(CCCCCC)CCCCCC)OC(=O)N(CCCCC(=O)OC(CC)CCC)CCCN(C)C (stereo not drawn) [Compound 306]	4.13E+07	5.44E+06	2.45E+08	2.22%	6.53	91.92%
CCCCCCC(CCCCCC)OC(=O)CCCCCCCCC(CCCCCCCCC(=O)OC(CCCCCC)CCCCCC)OC(=O)N(CCCC(=O)OC(C)CC)CCCN(C)C (stereo not drawn) [Compound 308]	9.58E+07	4.93E+06	6.29E+08	0.78%	2.31	93.71%
